Several values for one entry are separate records, joined by “and”; a condition that tells them apart may be missing. Identical values can stand only once. ± gives the expanded uncertainty stated by the source.
How the values were obtained:
[1] = xn = mol fraction of the nth substance listed; conditions: 100 kPa, Liquid, Vibrating tube method
[2] = excess molar enthalpy (molar enthalpy of mixing); xn = mol fraction of the nth substance listed; conditions: 100 kPa, Liquid, Flow calorimetry

CCC(=O)CC [pentan-3-one] + O
Conditions	excess molar enthalpy, [2]	mass density, [1] [kg/m3]
288.15 K, x1 = 0.000848	-0.0109 ± 0.00087 kJ/mol	998.595 ± 0.034
288.15 K, x1 = 0.000849	-0.011 ± 0.00087 kJ/mol	998.589 ± 0.034
288.15 K, x1 = 0.001695	-0.0215 ± 0.00098 kJ/mol	998.107 ± 0.035
288.15 K, x1 = 0.001696	-0.0218 ± 0.00099 kJ/mol	998.104 ± 0.035
288.15 K, x1 = 0.00254	-0.0323 ± 0.0012 kJ/mol	997.609 ± 0.037
288.15 K, x1 = 0.002542	-0.0322 ± 0.0012 kJ/mol	997.616 ± 0.037
288.15 K, x1 = 0.003385	-0.0426 ± 0.0014 kJ/mol	997.144 ± 0.039
288.15 K, x1 = 0.003386	-0.0427 ± 0.0014 kJ/mol	997.139 ± 0.039
288.15 K, x1 = 0.004227	-0.0529 ± 0.0016 kJ/mol	996.667 ± 0.041
288.15 K, x1 = 0.004229	-0.0527 ± 0.0016 kJ/mol	996.682 ± 0.041
288.15 K, x1 = 0.005069	-0.0627 ± 0.0018 kJ/mol	996.228 ± 0.044
288.15 K, x1 = 0.005071	-0.0629 ± 0.0018 kJ/mol	996.221 ± 0.044
298.15 K, x1 = 0.000847	-0.00897 kJ/mol and -0.00895 kJ/mol	996.504 ± 0.035
298.15 K, x1 = 0.001693	-0.018 ± 0.00093 kJ/mol	995.96 ± 0.036
298.15 K, x1 = 0.001694	-0.0178 ± 0.00093 kJ/mol	995.958 ± 0.036
298.15 K, x1 = 0.002537	-0.0262 ± 0.0011 kJ/mol	995.458 ± 0.038
298.15 K, x1 = 0.002539	-0.0263 ± 0.0011 kJ/mol	995.442 ± 0.038
298.15 K, x1 = 0.00338	-0.0344 ± 0.0012 kJ/mol	994.944 ± 0.041
298.15 K, x1 = 0.003383	-0.0347 ± 0.0012 kJ/mol	994.931 ± 0.041
298.15 K, x1 = 0.004222	-0.0431 ± 0.0014 kJ/mol	994.42 ± 0.044
298.15 K, x1 = 0.004225	-0.0431 ± 0.0014 kJ/mol	994.423 ± 0.044
298.15 K, x1 = 0.005064	-0.0513 ± 0.0016 kJ/mol	993.924 ± 0.061
298.15 K, x1 = 0.005066	-0.0516 ± 0.0016 kJ/mol	993.902 ± 0.061
308.15 K, x1 = 0.000848	-0.00697 ± 0.00083 kJ/mol	993.46 ± 0.036
308.15 K, x1 = 0.000849	-0.00709 ± 0.00083 kJ/mol	993.449 ± 0.036
308.15 K, x1 = 0.001695	-0.0139 ± 0.00089 kJ/mol	992.887 ± 0.038
308.15 K, x1 = 0.001696	-0.0139 ± 0.00089 kJ/mol	992.873 ± 0.038
308.15 K, x1 = 0.00254	-0.0206 ± 0.00097 kJ/mol	992.322 ± 0.04
308.15 K, x1 = 0.002543	-0.0208 ± 0.00097 kJ/mol	992.311 ± 0.04
308.15 K, x1 = 0.003384	-0.027 ± 0.0011 kJ/mol	991.77 ± 0.043
308.15 K, x1 = 0.003387	-0.0268 ± 0.0011 kJ/mol	991.774 ± 0.043
308.15 K, x1 = 0.004226	-0.0333 ± 0.0012 kJ/mol	991.241 ± 0.46
308.15 K, x1 = 0.004231	-0.0334 ± 0.0012 kJ/mol	991.216 ± 0.46
308.15 K, x1 = 0.005069	-0.0399 ± 0.0016 kJ/mol	990.666 ± 2.4
308.15 K, x1 = 0.005074	-0.0401 ± 0.0016 kJ/mol	990.66 ± 2.4
318.15 K, x1 = 0.000849	-0.00506 ± 0.00082 kJ/mol	989.61 ± 0.038
318.15 K, x1 = 0.00085	-0.00512 ± 0.00082 kJ/mol	989.603 ± 0.038
318.15 K, x1 = 0.001697	-0.0101 ± 0.00086 kJ/mol	989.005 ± 0.04
318.15 K, x1 = 0.001698	-0.0101 ± 0.00086 kJ/mol	988.992 ± 0.04
318.15 K, x1 = 0.002543	-0.0149 ± 0.00089 kJ/mol	988.399 ± 0.078
318.15 K, x1 = 0.002544	-0.0149 ± 0.0009 kJ/mol	988.396 ± 0.042
318.15 K, x1 = 0.003388	-0.0193 ± 0.00095 kJ/mol	987.821 ± 0.045
318.15 K, x1 = 0.00339	-0.0196 ± 0.00095 kJ/mol	987.82 ± 0.045
318.15 K, x1 = 0.004231	-0.0241 ± 0.001 kJ/mol	987.229 ± 0.049
318.15 K, x1 = 0.004233	-0.024 ± 0.001 kJ/mol	987.234 ± 0.049
318.15 K, x1 = 0.005073	-0.0284 ± 0.0011 kJ/mol	986.636 ± 0.053
318.15 K, x1 = 0.005076	-0.0285 ± 0.0011 kJ/mol	986.636 ± 0.053

CCCC(C)=O [pentan-2-one] + O
Conditions	excess molar enthalpy, [2]	mass density, [1]
288.15 K, x1 = 0.000842	-0.0106 kJ/mol and -0.0107 kJ/mol	998.562 ± 0.034 kg/m3 and 998.56 ± 0.034 kg/m3
288.15 K, x1 = 0.001683	-0.0212 kJ/mol	998.027 ± 0.036 kg/m3 and 998.026 ± 0.036 kg/m3
288.15 K, x1 = 0.002522	-0.0315 kJ/mol and -0.0314 kJ/mol	997.512 ± 0.037 kg/m3 and 997.513 ± 0.037 kg/m3
288.15 K, x1 = 0.00336	-0.0413 ± 0.0014 kJ/mol	997.021 ± 0.04 kg/m3
288.15 K, x1 = 0.003361	-0.0415 ± 0.0014 kJ/mol	997.002 ± 0.04 kg/m3
288.15 K, x1 = 0.004197	-0.0511 ± 0.0016 kJ/mol	996.522 ± 0.043 kg/m3
288.15 K, x1 = 0.004198	-0.0515 ± 0.0016 kJ/mol	996.499 ± 0.043 kg/m3
288.15 K, x1 = 0.005032	-0.0612 ± 0.0018 kJ/mol	996.016 ± 0.045 kg/m3
288.15 K, x1 = 0.005035	-0.0613 ± 0.0018 kJ/mol	996.015 ± 0.045 kg/m3
298.15 K, x1 = 0.000841	-0.00867 ± 0.00085 kJ/mol	996.472 ± 0.035 kg/m3
298.15 K, x1 = 0.000842	-0.00867 ± 0.00085 kJ/mol	996.472 ± 0.035 kg/m3
298.15 K, x1 = 0.001681	-0.0172 ± 0.00092 kJ/mol	995.903 ± 0.037 kg/m3
298.15 K, x1 = 0.001682	-0.0172 ± 0.00092 kJ/mol	995.902 ± 0.037 kg/m3
298.15 K, x1 = 0.00252	-0.0257 ± 0.0011 kJ/mol	995.346 ± 0.039 kg/m3
298.15 K, x1 = 0.002521	-0.0258 ± 0.0011 kJ/mol	995.334 ± 0.039 kg/m3
298.15 K, x1 = 0.003357	-0.0338 ± 0.0012 kJ/mol	994.797 ± 0.042 kg/m3
298.15 K, x1 = 0.003358	-0.0335 ± 0.0012 kJ/mol	994.811 ± 0.042 kg/m3
298.15 K, x1 = 0.004193	-0.0418 kJ/mol and -0.0416 kJ/mol	994.25 ± 0.045 kg/m3 and 994.26 ± 0.045 kg/m3
298.15 K, x1 = 0.005028	-0.0496 ± 0.0015 kJ/mol	993.716 ± 0.062 kg/m3
298.15 K, x1 = 0.005029	-0.0497 ± 0.0015 kJ/mol	993.707 ± 0.062 kg/m3
308.15 K, x1 = 0.000841	-0.00681 ± 0.00083 kJ/mol	–
308.15 K, x1 = 0.000842	-0.00685 ± 0.00083 kJ/mol	993.42 ± 0.036 kg/m3
308.15 K, x1 = 0.001681	-0.0135 ± 0.00089 kJ/mol	992.814 ± 0.038 kg/m3
308.15 K, x1 = 0.001683	-0.0135 ± 0.00089 kJ/mol	992.818 ± 0.038 kg/m3
308.15 K, x1 = 0.00252	-0.0199 ± 0.00096 kJ/mol	992.226 ± 0.041 kg/m3
308.15 K, x1 = 0.002522	-0.0198 ± 0.00095 kJ/mol	992.228 ± 0.041 kg/m3
308.15 K, x1 = 0.003358	-0.0262 ± 0.0011 kJ/mol	991.617 ± 0.044 kg/m3
308.15 K, x1 = 0.00336	-0.0261 ± 0.0011 kJ/mol	991.643 ± 0.044 kg/m3
308.15 K, x1 = 0.004194	-0.0324 ± 0.0012 kJ/mol	991.052 ± 0.047 kg/m3
308.15 K, x1 = 0.004197	-0.0324 ± 0.0012 kJ/mol	991.045 ± 0.047 kg/m3
308.15 K, x1 = 0.005031	-0.0384 ± 0.0013 kJ/mol	990.475 ± 0.063 kg/m3
308.15 K, x1 = 0.005034	-0.0383 ± 0.0013 kJ/mol	990.474 ± 0.063 kg/m3
318.15 K, x1 = 0.00084	-0.00492 ± 0.00081 kJ/mol	989.57 ± 0.038 kg/m3
318.15 K, x1 = 0.001679	-0.00971 ± 0.00086 kJ/mol	988.929 ± 0.04 kg/m3
318.15 K, x1 = 0.002517	-0.0143 ± 0.0009 kJ/mol	988.307 ± 0.043 kg/m3
318.15 K, x1 = 0.003354	-0.0188 ± 0.00094 kJ/mol	987.666 ± 0.046 kg/m3
318.15 K, x1 = 0.004189	-0.0231 ± 0.001 kJ/mol	987.058 ± 0.049 kg/m3
318.15 K, x1 = 0.005024	-0.0272 ± 0.0011 kJ/mol	986.447 ± 0.054 kg/m3

Reference: the NIST ThermoML archive (doi:10.1021/acs.jced.7b00035)
